Laboratory results from patent US20260116910A1, “POLYCYCLIC COMPOUNDS AND METHODS THEREOF” (HEPAITECH (BEIJING) BIOPHARMA TECHNOLOGY CO., LTD., priority 2021, published 2026).
Read-outs that look alike come from different tables or passages of the source.

Legend:
[1] = target: T1, human FXR (NR1H4) (Homo sapiens, UniProt Q96RI1); experiment: Human FXR (NR1H4) agonist assessment, FXRE-NanoLuc reporter in HEK293T cells; assay type: cell-based; conditions: for EC50: read-out: EC50
T1 sequence (Q96RI1 1-476 isoform Q96RI1-1): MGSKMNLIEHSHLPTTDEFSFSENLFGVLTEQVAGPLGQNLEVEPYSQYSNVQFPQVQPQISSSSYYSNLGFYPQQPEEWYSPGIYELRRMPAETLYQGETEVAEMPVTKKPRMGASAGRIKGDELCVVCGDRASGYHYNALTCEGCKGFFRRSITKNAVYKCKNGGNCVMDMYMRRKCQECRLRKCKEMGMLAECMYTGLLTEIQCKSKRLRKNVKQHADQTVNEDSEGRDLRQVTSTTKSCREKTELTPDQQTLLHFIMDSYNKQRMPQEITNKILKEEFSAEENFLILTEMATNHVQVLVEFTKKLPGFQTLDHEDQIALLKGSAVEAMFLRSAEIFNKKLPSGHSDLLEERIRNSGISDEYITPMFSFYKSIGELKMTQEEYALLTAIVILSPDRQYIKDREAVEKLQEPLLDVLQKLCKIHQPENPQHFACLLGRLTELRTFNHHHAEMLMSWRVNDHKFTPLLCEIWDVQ
Experimental: As those skilled in the art appreciate, various technologies are available for assessment of FXR activation in accordance with the present disclosure. […] Human FXR (NR1H4) agonist assessment (see, e.g., Yu et al. eLife 2019; 8: e48431): HEK293T cells stably expressing human FXR and containing FXR response element (FXRE)-NanoLuc reporter were cultured in DMEM medium supplemented with 10% FBS and 1% PS, at 37° C. in a humidified atmosphere with 5% CO2. Cells were detached by centrifuging (1000 rpm, 3 min). The pellet was re-suspended in medium, and cell density was adjusted to about 1×10^6 cells/mL. 100 μL suspension was seeded to each well of a white-walled, clear-bottom 96-well microplates (cell plate). Cells in microplates were cultured overnight.
In the following day, cells were grown to higher than 95% density in each well. Culture medium was replaced, and compounds were added to the wells. 0.01% DMSO (v/v) served as negative control. Plates were incubated at 37° C. in 5% CO2 for 24 hr.
In the following day, a 10 μL aliquot of cell culture medium was removed from each well and combined with 40 μL culture medium plus […] assay buffer (containing 20 mM of the luciferase substrate coelenterazine). After 5 min incubation, luminescence was measured using an EnVision plate reader (PerkinElmer).
In some embodiments, gradient diluted solutions of several concentrations were used to treat cells and corresponding responses were used to fit sigmoid function and to derive EC50 in Origin.

[2] = target: MRGPRX4 (Homo sapiens, UniProt Q96LA9); experiment: MRGPRX4 activation, Fluo-8 Ca2+ FLIPR assay in HEK293T cells stably expressing MRGPRX4; assay type: cell-based; conditions: for EC50: MRGPRX4 activation, Ca2+ fluorescence, no activation in tested range reported as III, read-out: Activity (EC50 μM)
Chain of MRGPRX4 (Q96LA9 whole entry): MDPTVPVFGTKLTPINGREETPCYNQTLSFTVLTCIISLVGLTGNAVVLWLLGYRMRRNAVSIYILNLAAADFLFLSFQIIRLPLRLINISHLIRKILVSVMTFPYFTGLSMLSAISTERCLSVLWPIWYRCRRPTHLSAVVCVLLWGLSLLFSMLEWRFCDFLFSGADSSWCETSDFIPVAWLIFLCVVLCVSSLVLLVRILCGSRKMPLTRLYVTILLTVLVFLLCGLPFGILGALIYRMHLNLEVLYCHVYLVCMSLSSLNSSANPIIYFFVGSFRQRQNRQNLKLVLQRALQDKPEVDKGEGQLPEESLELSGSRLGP
Experimental: In some embodiments, cells were cultured in poly-D-Lys coated blacked walled, clear-bottom 96-well microplates. HEK293T cells stably expressing MRGPRX4 were cultured in DMEM medium supplemented with 10% FBS and 1% PS, at 37° C. in a humidified atmosphere with 5% CO2. Cells were detached by centrifuging (1000 rpm, 3 min). The pellet was re-suspended in medium, and cell density was adjusted to about 1×10^6 cells/mL. 100 μL suspension was seeded to each well of a microplates (cell plate). Cells in the microplates were cultured overnight. In the following day, cells were grown to higher than 95% density in each well.
Ca^2+ fluorescent dye loading: Fluo-8 AM (Screen Quest Fluo-8 AM Calcium Assay Kit, AAT Bioquest, cat. #: 21083) was diluted in HHBS buffer and adjusted to 2 μM (dye buffer). Medium in each well was changed into 50 μL dye buffer carefully. After incubation for 40-60 min under room temperature, the dye buffer was changed into 50 μL HHBS buffer.
The concentration of solution should be determined according to the protocol settings and experimental needs (e.g., Log[M]=−4, −5, −6, −7, −8, and −9). Prepare 2× serial dilution series of compounds (at least 75 μL per well).
A fluorescent signal baseline was measured using FLIPR®Tetra for 30 s. Then 50 μL of the chemical solution would be added to the cell plate. The fluorescent signal would be measured for another 150 s.
Activity of each compound was calculated by the fluorescence change (dF/F0). Curves were fitted to obtain EC50 values. In some embodiments, at least 3 repeats were performed to obtain the average values. For assessment of a compound, gradient diluted solutions of different concentrations were used to treat cells and corresponding responses were used to fit sigmoid function and to derive EC50 in Origin. In some embodiments, assessed concentrations were or included about 10^−4, 10^−4.5, 10^−5, 10^−5.5, 10^−6, 10^−6.5, 10^−7, 10^−8, and/or 10^−9 M; for example, in many instances, assessed concentrations included about 10^−5, 10^−6, 10^−7 and 10^−8 M. In some embodiments, assessed concentrations were about 10^−4, 10^−4.5, 10^−5, 10^−5.5, 10^−6, 10^−7, 10^−8, and 10^−9 M. In some embodiments, assessed concentrations were about 10^−4, 10^−5, 10^−6, 10^−7, 10^−8, and 10^−9 M. In some embodiments, assessed concentrations were about 10^−4, 10^−4.5, 10^−5, 10^−5.5, 10^−6, and 10^−7 M. In some embodiments, assessed concentrations were about 2000000, 1000000, 500000, 250000, 125000, 62500, 31250, 15625, 7813, 3906 nM. […] In some embodiments, assessed concentrations were about 30000, 10000, 3333, 1111, 370, 123, 41, 14, 4.6, 1.5 nM.

[3] = FXR activation, HEK293T FXRE-NanoLuc reporter, 24 hr

CC[C@H]1[C@@H](O)[C@@H]2[C@H](CC[C@]3(C)[C@@H]([C@H](C)CCO)CC[C@@H]23)[C@@]2(C)CCCC[C@@H]12 [2-5]
Efficacy (maximum measured induction of NanoLuc, normalized to CDCA set as 100%) [1, 3]: A (efficacy >400%) | EC50 [1, 3]: 1000 to 10000 nM | EC50 [2]: > 100 µM

C[C@H](CC/C=C/C(=O)O)[C@H]1CC[C@H]2[C@@H]3CC[C@@H]4C[C@H](O)CC[C@]4(C)[C@H]3CC[C@]12C [1-7]
Efficacy (maximum measured induction of NanoLuc, normalized to CDCA set as 100%) [1, 3]: C (100%<efficacy <=300%) | EC50 [1, 3]: 1000 to 10000 nM | MRGPRX4 activation, fluorescence change (dF/F0), Average ([2]; Conc. (Log[M]) −4): 0.083 | MRGPRX4 activation, fluorescence change (dF/F0), Average ([2]; Conc. (Log[M]) −4.5): 0.011 | MRGPRX4 activation, fluorescence change (dF/F0), Average ([2]; Conc. (Log[M]) −5): −0.048 | MRGPRX4 activation, fluorescence change (dF/F0), Average ([2]; Conc. (Log[M]) −5.5): −0.037 | MRGPRX4 activation, fluorescence change (dF/F0), Average ([2]; Conc. (Log[M]) −6): −0.044 | MRGPRX4 activation, fluorescence change (dF/F0), Average ([2]; Conc. (Log[M]) −7): −0.045 | MRGPRX4 activation, fluorescence change (dF/F0), Average ([2]; Conc. (Log[M]) −8): −0.040 | MRGPRX4 activation, fluorescence change (dF/F0), Average ([2]; Conc. (Log[M]) −9): −0.034 | EC50 [2]: < 50 µM

CC[C@H]1[C@@H](O)[C@@H]2[C@H](CC[C@]3(C)[C@@H]([C@H](C)CCNC(=O)NS(=O)(=O)c4ccc(C(C)(C)C)cc4)CC[C@@H]23)[C@@]2(C)CCCC[C@@H]12 [5-1]
Efficacy (maximum measured induction of NanoLuc, normalized to CDCA set as 100%) [1, 3]: B (300%<efficacy <=400%) | EC50 [1, 3]: < 1000 nM | EC50 [2]: > 100 µM

CC[C@H]1[C@@H](O)[C@@H]2[C@H](CC[C@]3(C)[C@@H]([C@H](C)CCOC(=O)NS(=O)(=O)c4ccc5c(c4)CCC(C)(C)O5)CC[C@@H]23)[C@@]2(C)CCCC[C@@H]12 [19-1]
Efficacy (maximum measured induction of NanoLuc, normalized to CDCA set as 100%) [1, 3]: B (300%<efficacy <=400%) | EC50 [1, 3]: < 1000 nM

C[C@H](CCCCNC(=O)NS(=O)(=O)c1ccc(C(C)(C)CF)cc1)[C@H]1CC[C@H]2[C@@H]3CC[C@@H]4CCCC[C@]4(C)[C@H]3CC[C@]12C [24-1]
Efficacy (maximum measured induction of NanoLuc, normalized to CDCA set as 100%) [1, 3]: B (300%<efficacy <=400%) | EC50 [1, 3]: 1000 to 10000 nM

CC[C@H]1[C@@H](O)[C@@H]2[C@H](CC[C@]3(C)[C@@H]([C@H](C)CCNC(=O)NS(=O)(=O)C[C@]45CCC(CC4=O)C5(C)C)CC[C@@H]23)[C@@]2(C)CCCC[C@@H]12 [5-27]
Efficacy (maximum measured induction of NanoLuc, normalized to CDCA set as 100%) [1, 3]: A (efficacy >400%) | EC50 [1, 3]: < 1000 nM

CC[C@H]1[C@@H](O)[C@@H]2[C@H](CC[C@]3(C)[C@@H]([C@H](C)CCNC(=S)NS(=O)(=O)c4cccs4)CC[C@@H]23)[C@@]2(C)CCCC[C@@H]12 [7-3]
Efficacy (maximum measured induction of NanoLuc, normalized to CDCA set as 100%) [1]: C (key: A: efficacy >400%; B: 300%<efficacy <=400%; C: 100%<efficacy <=300%; D: efficacy <=100%) | EC50 [1, 3]: < 1000 nM

CC[C@H]1[C@@H](O)[C@@H]2[C@H](CC[C@]3(C)[C@@H]([C@H](C)CCc4nnc(NS(=O)(=O)c5ccc6c(c5)OCO6)[nH]4)CC[C@@H]23)[C@@]2(C)CCCC[C@@H]12 [15-3]
Efficacy (maximum measured induction of NanoLuc, normalized to CDCA set as 100%) [1, 3]: C (100%<efficacy <=300%) | EC50 [1, 3]: 1000 to 10000 nM

CC[C@H]1[C@@H](O)[C@@H]2[C@H](CC[C@]3(C)[C@@H]([C@H](C)CCNC(=S)NS(=O)(=O)c4ccc(C(C)(C)CF)cc4)CC[C@@H]23)[C@@]2(C)CCCC[C@@H]12 [7-2]
Efficacy (maximum measured induction of NanoLuc, normalized to CDCA set as 100%) [1]: B (key: A: efficacy >400%; B: 300%<efficacy <=400%; C: 100%<efficacy <=300%; D: efficacy <=100%) | EC50 [1, 3]: < 1000 nM

CC[C@H]1[C@@H](O)[C@@H]2[C@H](CC[C@]3(C)[C@@H]([C@H](C)Cc4nnn[nH]4)CC[C@@H]23)[C@@]2(C)CCCC[C@@H]12 [16-2]
Efficacy (maximum measured induction of NanoLuc, normalized to CDCA set as 100%) [1, 3]: C (100%<efficacy <=300%) | EC50 [1, 3]: < 1000 nM

CC[C@H]1[C@@H](O)[C@@H]2[C@H](CC[C@]3(C)[C@@H]([C@H](C)CCNC(=O)NS(=O)(=O)c4ccc(C(C)(C)C(=O)OC)cc4)CC[C@@H]23)[C@@]2(C)CCCC[C@@H]12 [5-9]
Efficacy (maximum measured induction of NanoLuc, normalized to CDCA set as 100%) [1, 3]: B (300%<efficacy <=400%) | EC50 [1, 3]: < 1000 nM

CC[C@H]1[C@@H](O)[C@@H]2[C@H](CC[C@]3(C)[C@@H]([C@H](C)CCNC(=O)C(=O)O)CC[C@@H]23)[C@@]2(C)CCCC[C@@H]12 [8-1]
Efficacy (maximum measured induction of NanoLuc, normalized to CDCA set as 100%) [1, 3]: B (300%<efficacy <=400%) | EC50 [1, 3]: 1000 to 10000 nM

CC[C@H]1[C@@H](O)[C@@H]2[C@H](CC[C@]3(C)[C@@H]([C@H](C)CCNC(=N)N)CC[C@@H]23)[C@@]2(C)CCCC[C@@H]12 [17-1]
Efficacy (maximum measured induction of NanoLuc, normalized to CDCA set as 100%) [1, 3]: A (efficacy >400%) | EC50 [1, 3]: < 1000 nM

CC[C@H]1[C@@H](O)[C@@H]2[C@H](CC[C@]3(C)[C@@H]([C@H](C)CCOC(=O)NS(=O)(=O)c4ccc(N5CCCCC5)nc4)CC[C@@H]23)[C@@]2(C)CCCC[C@@H]12 [19-2]
Efficacy (maximum measured induction of NanoLuc, normalized to CDCA set as 100%) [1, 3]: B (300%<efficacy <=400%) | EC50 [1, 3]: < 1000 nM

C[C@H](CCCOC(=O)NS(=O)(=O)c1ccc(C(C)(C)CF)cc1)[C@H]1CC[C@H]2[C@@H]3CC[C@@H]4CCCC[C@]4(C)[C@H]3CC[C@]12C [22-1]
Efficacy (maximum measured induction of NanoLuc, normalized to CDCA set as 100%) [1]: B (key: A: efficacy >400%; B: 300%<efficacy <=400%; C: 100%<efficacy <=300%; D: efficacy <=100%) | EC50 [1, 3]: 1000 to 10000 nM

CC[C@H]1[C@@H](O)[C@@H]2[C@H](CC[C@]3(C)[C@@H]([C@H](C)CCc4nnc(N)[nH]4)CC[C@@H]23)[C@@]2(C)CCCC[C@@H]12 [15-2]
Efficacy (maximum measured induction of NanoLuc, normalized to CDCA set as 100%) [1, 3]: C (100%<efficacy <=300%) | EC50 [1, 3]: < 1000 nM

CC[C@H]1[C@@H](O)[C@@H]2[C@H](CC[C@]3(C)[C@@H]([C@H](C)CCC(=O)Nc4nnn[nH]4)CC[C@@H]23)[C@@]2(C)CCCC[C@@H]12 [16-1]
Efficacy (maximum measured induction of NanoLuc, normalized to CDCA set as 100%) [1]: B (key: A: efficacy >400%; B: 300%<efficacy <=400%; C: 100%<efficacy <=300%; D: efficacy <=100%) | EC50 [1, 3]: 1000 to 10000 nM

CC[C@H]1[C@@H](O)[C@@H]2[C@H](CC[C@]3(C)[C@@H]([C@H](C)CCN)CC[C@@H]23)[C@@]2(C)CCCC[C@@H]12 [6-1]
Efficacy (maximum measured induction of NanoLuc, normalized to CDCA set as 100%) [1, 3]: B (300%<efficacy <=400%) | EC50 [1, 3]: < 1000 nM
